# Test system: Brain
# Test: Permeability across brain in Tg2576 mouse at 100 mg/kg, po
# Assay type: ADME, organism-based
# Parameters: dose 100 mg/kg, route oral
# Settings: in vivo
row,Structure (SMILES),permeability
1,CN1C(=O)C(c2ccccc2)(c2ccccc2)N=C1N,81%
2,CN1C(=O)[C@](c2ccccc2)(c2ccc(OC(F)F)cc2)N=C1N,90%
3,CN1C(=O)[C@@](c2ccc(OC(F)(F)F)cc2)(c2cccc(-c3cccnc3F)c2)N=C1N,10%
4,CN1C(=O)[C@@](c2ccc(OC(F)F)cc2)(c2cccc(-c3cc(F)cnc3F)c2)N=C1N,9%

# The next lines start with the values.
row,permeability,Structure (SMILES)
1,9%,CN1C(=O)[C@@](c2ccc(OC(F)F)cc2)(c2cccc(-c3cccnc3F)c2)N=C1N
2,10%,COc1ccc([C@]2(c3cccc(-c4cccnc4F)c3)N=C(N)N(C)C2=O)cc1C
3,7%,COc1ccc([C@]2(c3cccc(-c4cccnc4OC)c3)N=C(N)N(C)C2=O)cc1C
4,10%,CN1C(=O)[C@@](c2ccc(OC(F)(F)F)cc2)(c2cccc(-c3cccnc3)c2)N=C1N
5,15%,COc1ccc([C@]2(c3cccc(-c4cccnc4)c3)N=C(N)N(C)C2=O)cc1C
6,5%,COc1ccc([C@]2(c3cccc(-c4cncnc4)c3)N=C(N)N(C)C2=O)cc1C

# Test system: not listed separately
# Test: Ratio of AUC in brain to plasma in Tg2576 mouse
# Assay type: ADME
# Settings: brain and plasma, read-out: Ratio AUC
row,Structure (SMILES),Kp
1,CN1C(=O)C(c2ccccc2)(c2ccccc2)N=C1N,0.8
2,CN1C(=O)[C@@](c2ccc(OC(F)(F)F)cc2)(c2ccc(F)c(-c3cncnc3)c2)N=C1N,0.1
3,NC1=NC(c2ccccc2)(c2ccccc2)C2=NCCCN12,1
4,COc1ccc([C@]2(c3ccc(F)c(-c4cccnc4F)c3)N=C(N)N(C)C2=O)cc1C,0.1

# — ChEMBL document CHEMBL1268920, “Design and synthesis of aminohydantoins as potent and selective human β-secretase (BACE1) inhibitors with enhanced brain permeability” (Bioorg Med Chem Lett, 2010)
